Source: patent publication US20240158446A1, “CYCLIC COMPOUND HAVING SELECTIVE INHIBITORY ACTION ON KRAS OVER HRAS AND NRAS” (CHUGAI SEIYAKU KABUSHIKI KAISHA, priority 2021, published 2024)
Like-named read-outs stand apart in the source and are kept apart here. *1 amine or outer side, *2 acyl side, *3 side chain or, on linkers, in order; H or OH if unused. Where a SMILES comes first, the peptide text is derived from it. Bridges are numbered along the chain shown (N, C = ends). [ ]: non-standard residue; d: D form. The star is where a group is joined. hPhe(3,5-F2-4-CF3) = N[C@@H](CCc1cc(F)c(C(F)(F)F)c(F)c1)C(=O)O; X22 = O=C([C@H](Cc1ccc(C(F)(F)F)cc1)N(CC1CCCC1)[*:1])[*:2]; hPhe(3-Cl-4-CF3) = N[C@@H](CCc1ccc(C(F)(F)F)c(Cl)c1)C(=O)O; NPrPhe(4-CF3) = CCCN[C@@H](Cc1ccc(C(F)(F)F)cc1)C(=O)O; X13 = O=C([C@@H](N[*:1])C1CC(F)(F)C1)[*:2]; NMeGly(cPent) = CN[C@H](C(=O)O)C1CCCC1; Pro(4,4-F2) = O=C(O)[C@@H]1CC(F)(F)CN1; NMeD = CN[C@@H](CC(=O)O)C(=O)O; NMeL = CN[C@@H](CC(C)C)C(=O)O; Morpholide = C1CN(*)CCO1; NMeA = CN[C@@H](C)C(=O)O; Ac5c = NC1(C(=O)O)CCCC1; Aze = O=C(O)[C@@H]1CCN1; Ac4c = NC1(C(=O)O)CCC1; Sar = CNCC(=O)O

What was measured:
[1] = target: GDP-bound NRAS wild-type protein (Homo sapiens, UniProt P01111); experiment: Binding to NRAS by surface plasmon resonance (SPR), Single Cycle Kinetics; details: for NRAS/KRAS (ratio of KD value with respect to GDP-bound NRAS wild-type protein to KD value with respect to KRAS): SPR KD ratio NRAS/KRAS, class symbols; for NRAS/KRAS (ratio of KD value for NRAS to KD value for KRAS) / NRAS/KRAS (ratio of KD value with respect to NRAS to KD value with respect to KRAS): SPR, GDP-bound NRAS wild-type protein vs GDP-bound KRAS wild-type protein
[2] = target: GDP-bound KRAS wild-type protein (Homo sapiens, UniProt P01116); experiment: Binding to KRAS by surface plasmon resonance (SPR), Single Cycle Kinetics; details: GDP-bound KRAS wild-type protein, read-out: KRAS KD
[3] = target: GDP-bound HRAS wild-type protein (Homo sapiens, UniProt P01112); experiment: Binding to HRAS by surface plasmon resonance (SPR), Single Cycle Kinetics; details: for HRAS/KRAS (ratio of KD value with respect to GDP-bound HRAS wild-type protein to KD value with respect to KRAS): SPR KD ratio HRAS/KRAS, class symbols; for HRAS/KRAS (ratio of KD value for HRAS to KD value for KRAS) / HRAS/KRAS (ratio of KD value with respect to HRAS to KD value with respect to KRAS): SPR, GDP-bound HRAS wild-type protein vs GDP-bound KRAS wild-type protein
[4] = SPR Single Cycle Kinetics, 1:1 binding model

GDP-bound NRAS wild-type protein, sequence (P01111 whole entry): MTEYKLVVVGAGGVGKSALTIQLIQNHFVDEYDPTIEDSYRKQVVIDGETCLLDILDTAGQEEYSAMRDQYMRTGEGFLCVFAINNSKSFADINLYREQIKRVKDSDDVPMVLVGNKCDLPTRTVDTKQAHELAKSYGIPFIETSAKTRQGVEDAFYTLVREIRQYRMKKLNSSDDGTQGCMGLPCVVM
GDP-bound HRAS wild-type protein, sequence (P01112 whole entry): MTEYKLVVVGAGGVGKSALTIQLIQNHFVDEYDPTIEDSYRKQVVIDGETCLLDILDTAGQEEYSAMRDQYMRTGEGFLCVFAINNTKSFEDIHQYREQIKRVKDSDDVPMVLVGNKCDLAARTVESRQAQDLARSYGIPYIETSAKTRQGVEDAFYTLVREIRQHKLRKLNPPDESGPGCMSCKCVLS
GDP-bound KRAS wild-type protein, sequence (P01116 whole entry): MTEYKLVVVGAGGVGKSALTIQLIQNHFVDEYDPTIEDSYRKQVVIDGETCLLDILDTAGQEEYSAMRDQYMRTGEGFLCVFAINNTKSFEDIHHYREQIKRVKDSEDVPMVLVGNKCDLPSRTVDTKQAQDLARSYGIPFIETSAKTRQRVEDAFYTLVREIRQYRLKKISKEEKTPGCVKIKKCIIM

SMILES | NRAS/KRAS (ratio of KD value with respect to GDP-bound NRAS wild-type protein to KD value with respect to KRAS) [1] | Kd [2, 4] [nM] | HRAS/KRAS (ratio of KD value with respect to GDP-bound HRAS wild-type protein to KD value with respect to KRAS) [3] | NRAS/KRAS (ratio of KD value for NRAS to KD value for KRAS) [1] | HRAS/KRAS (ratio of KD value for HRAS to KD value for KRAS) [3] | NRAS/KRAS (ratio of KD value with respect to NRAS to KD value with respect to KRAS) [1] | HRAS/KRAS (ratio of KD value with respect to HRAS to KD value with respect to KRAS) [3] | Kd ([2]; SPR, Single Cycle Kinetics) [nM]
CCC[C@H]1C(=O)N[C@@H]([C@@H](C)CC)C(=O)N(C)CC(=O)N(C)[C@H]2C/C=C\CCN(C2=O)[C@@H](Cc2ccc(C)cc2)C(=O)N(C)CC(=O)N[C@@H](CCc2ccc3sc(F)c(C)c3c2)C(=O)N2C[C@H](OCC)C[C@H]2C(=O)NC2(CC(C)(C)C2)C(=O)N(C)[C@@H](C(CC)CC)C(=O)N(C)[C@H](C(=O)N(C)C)CC(=O)N1C [PP2894] | AA (a compound having 20 or more is denoted as AA) | 0.31 | A (a compound having 10 or more and less than 20 is denoted as A) | – | – | – | – | –
CC[C@H](C)[C@@H]1NC(=O)[C@H](CC(C)C)N(C)C(=O)C[C@@H](C(=O)N2CCOCC2)N(C)C(=O)[C@H](C2CCCC2)N(C)C(=O)C2(CCCC2)NC(=O)[C@@H]2CCCN2C(=O)[C@H](CCc2ccc(C(F)(F)F)c(Cl)c2)NC(=O)CN(C)C(=O)[C@H](Cc2ccc(C(F)(F)F)cc2)N(CC2CCCC2)C(=O)CN(C)C(=O)CN(C)C1=O [PP0124] ([NMeL]I[Sar][Sar][X22][Sar][hPhe(3-Cl-4-CF3)]P[Ac5c][NMeGly(cPent)][NMeD]-Morpholide; lactam N-11) | – | 3.5 | – | C (A compound having a KD ratio of 0.1 or more and less than 3 is denoted as C) | C (A compound having a KD ratio of 0.1 or more and less than 3 is denoted as C) | – | – | –
CCCN1C(=O)CN(C)C(=O)CN(C)C(=O)[C@H](C2CC(F)(F)C2)NC(=O)[C@H](CC(C)C)N(C)C(=O)C[C@@H](C(=O)N2CCOCC2)N(C)C(=O)[C@H](C2CCCC2)N(C)C(=O)C2(CCCC2)NC(=O)[C@@H]2CCCN2C(=O)[C@H](CCc2cc(F)c(C(F)(F)F)c(F)c2)NC(=O)CN(C)C(=O)[C@@H]1Cc1ccc(C(F)(F)F)cc1 [PP0769] ([NMeL][X13][Sar][Sar][NPrPhe(4-CF3)][Sar][hPhe(3,5-F2-4-CF3)]P[Ac5c][NMeGly(cPent)][NMeD]-Morpholide; lactam N-11) | – | 0.21 | – | – | – | B (a compound having 3 or more and less than 10 is denoted as B) | C (A compound having a KD ratio of 0.1 or more and less than 3 is denoted as C) | –
CCO[C@@H]1C[C@H]2C(=O)NC3(CCC3)C(=O)N(C)[C@@H](C3CCCC3)C(=O)N(C)[C@H](C(=O)N(C)C)CC(=O)N(C)[C@@H](CC)C(=O)N[C@@H]([C@@H](C)CC)C(=O)N(C)CC(=O)N(C)[C@H]3CCCCN(C3=O)[C@@H](Cc3ccc(C(F)(F)F)cc3)C(=O)N(C)CC(=O)N[C@@H](CCc3ccc(C(F)(F)F)cc3F)C(=O)N2C1 [PP0885] | – | – | – | C (A compound having a KD ratio of 0.1 or more and less than 3 is denoted as C) | B (a compound having 3 or more and less than 10 is denoted as B) | – | – | 0.098
CCO[C@@H]1C[C@H]2C(=O)NC3(CC(C)(C)C3)C(=O)N(C)[C@@H](C3CCCC3)C(=O)N(C)[C@H](C(=O)N3CCCC3)CC(=O)N(C)[C@H]3CCCCCc4ccc(cc4)C[C@@H](C(=O)N(C)CC(=O)N[C@@H](CCc4ccc(C(F)(F)F)c(OC)c4)C(=O)N2C1)N1CC/C=C\C[C@@H](C1=O)N(C)C(=O)CN(C)C(=O)[C@H]([C@@H](C)CC)NC3=O [PP3037, (1S,7S,11R,13S,19S,22S,26S,29S,35S,37Z)-19-cyclopentyl-11-ethoxy-7-[2-[3-methoxy-4-(trifluoromethyl)phenyl]ethyl]-3,3′,3′,18,21,25,31,34-octamethyl-29-[(1S)-1-methylpropyl]-22-(pyrrolidine-1-carbonyl)spiro[3,6,9,15,18,21,25,28,31,34,41-undecazapentacyclo[24.15.10.2^43,46.1^35,41.0^9,13]tetrapentaconta-37,43(53),44,46(52)-tetraene-16,1′-cyclobutane]-2,5,8,14,17,20,24,27,30,33,54-undecone] | – | – | – | A (a compound having 10 or more and less than 20 is denoted as A) | B (a compound having 3 or more and less than 10 is denoted as B) | – | – | 0.11
CC[C@H](C)[C@@H]1NC(=O)[C@H](C)N(C)C(=O)C[C@@H](C(=O)N(C)C)N(C)C(=O)[C@H](C2CCCC2)N(C)C(=O)C2(CCC2)NC(=O)[C@@H]2CC(F)(F)CN2C(=O)[C@H](CCc2cc(F)c(C(F)(F)F)c(F)c2)NC(=O)CN(C)C(=O)[C@H](Cc2ccc(C(F)(F)F)cc2)N2CCCC[C@@H](C2=O)N(C)C(=O)CN(C)C1=O [PP0584] | – | 0.0077 | – | – | – | C (A compound having a KD ratio of 0.1 or more and less than 3 is denoted as C) | C (A compound having a KD ratio of 0.1 or more and less than 3 is denoted as C) | –
CCC[C@H]1C(=O)N[C@@H]([C@@H](C)CC)C(=O)N(C)CC(=O)N(C)[C@H]2C/C=C\CCN(C2=O)[C@@H](Cc2ccc(C(F)(F)F)cc2)C(=O)N(C)CC(=O)N[C@@H](CCc2ccc(C(F)(F)F)c(Cl)c2)C(=O)N2C[C@H](OCC)C[C@H]2C(=O)NC2(CC(C)(C)C2)C(=O)N(C)[C@@H](CC(C)(C)C)C(=O)N(C)[C@H](C(=O)N(C)C)CC(=O)N1C [PP2969] | AA (a compound having 20 or more is denoted as AA) | 0.073 | A (a compound having 10 or more and less than 20 is denoted as A) | – | – | – | – | –
CCO[C@@H]1C[C@H]2C(=O)NC3(CC(C)(C)C3)C(=O)N(C)[C@@H](C3CCCC3)C(=O)N(C)[C@H](C(=O)N(C)C)CC(=O)N(C)[C@H]3CCCCCCc4ccc(cc4)C[C@@H](C(=O)N(C)CC(=O)N[C@@H](CCc4ccc(Cl)c(Cl)c4)C(=O)N2C1)N1CC/C=C\C[C@@H](C1=O)N(C)C(=O)CN(C)C(=O)[C@H]([C@@H](C)CC)NC3=O [PP3071] | – | – | – | A (a compound having 10 or more and less than 20 is denoted as A) | B (a compound having 3 or more and less than 10 is denoted as B) | – | – | 0.12
CCCN1C(=O)[C@@H]2CCN2C(=O)[C@H](C)N(C)C(=O)[C@H]([C@@H](C)CC)NC(=O)[C@H](CC(C)C)N(C)C(=O)C[C@@H](C(=O)N(C)C)N(C)C(=O)[C@H](C2CCCC2)N(C)C(=O)C2(CCC2)NC(=O)[C@@H]2CC(F)(F)CN2C(=O)[C@H](CCc2ccc(C(F)(F)F)c(Cl)c2)NC(=O)CN(C)C(=O)[C@@H]1Cc1ccc(C(F)(F)F)cc1 [PP0437] ([NMeL]I[NMeA][Aze][NPrPhe(4-CF3)][Sar][hPhe(3-Cl-4-CF3)][Pro(4,4-F2)][Ac4c][NMeGly(cPent)][NMeD]-NMe2; lactam N-11) | – | 0.036 | – | – | – | C (A compound having a KD ratio of 0.1 or more and less than 3 is denoted as C) | B (a compound having 3 or more and less than 10 is denoted as B) | –
